Results as given in patent US20150038545A1, “HYDROXYPHENYL PYRROLE COMPOUNDS CONTAINING AN HYDROXAMIC ACID AS HDAC INHIBITORS AND MEDICINAL APPLICATIONS THEREOF” (UNIVERSIDAD DEL PAÍS VASCO, priority 2011, published 2015).

Target: T1, Human HDAC10 (Homo sapiens, UniProt Q969S8)
T1 construct: Amino acids 1-631 with Nterminal GST tag, MW=96 kDa; GST (N); purchased BioMol SE-559; host or cells: Sf9 cells, baculovirus
T1 sequence (Q969S8 1-631): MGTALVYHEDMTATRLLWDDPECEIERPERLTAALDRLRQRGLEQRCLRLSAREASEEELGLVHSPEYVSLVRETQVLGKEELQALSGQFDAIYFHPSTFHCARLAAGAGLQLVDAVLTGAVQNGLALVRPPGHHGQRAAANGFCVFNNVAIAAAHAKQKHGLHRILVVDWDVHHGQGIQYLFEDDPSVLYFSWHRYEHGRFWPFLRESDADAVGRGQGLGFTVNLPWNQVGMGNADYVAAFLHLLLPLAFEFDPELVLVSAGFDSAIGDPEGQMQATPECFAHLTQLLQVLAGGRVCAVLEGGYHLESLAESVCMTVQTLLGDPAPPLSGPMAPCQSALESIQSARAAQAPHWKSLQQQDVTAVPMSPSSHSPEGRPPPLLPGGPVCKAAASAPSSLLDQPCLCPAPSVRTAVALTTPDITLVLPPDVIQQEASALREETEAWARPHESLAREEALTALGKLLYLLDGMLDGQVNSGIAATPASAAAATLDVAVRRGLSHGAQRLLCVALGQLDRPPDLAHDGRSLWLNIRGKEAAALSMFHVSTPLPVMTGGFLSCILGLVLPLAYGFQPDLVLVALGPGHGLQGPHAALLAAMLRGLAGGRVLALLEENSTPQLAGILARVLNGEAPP
Assay: In vitro HDAC10 inhibition, fluorogenic peptide assay
Assay type: biochemical
Conditions: for IC50: read-out: IC50 (nM) of enzyme activity HDAC10
Protocol: All HDAC assays were performed using acetylated AMC-labeled peptide substrate: • Substrate for isoforms HDAC1, 2, 3, 4, 5, 6, 7, 9, 10, 11 and HeLa nuclear extract assays: Acetylated fluorogenic peptide from p53 residues 379-382 (RHKKAc) (BioMol. Cat. # KI-104). • Substrate for HDAC8 assays: Acetylated fluorogenic peptide from p53 residues 379-382 (RHKAcKAc) (BioMol. Cat. # KI-178).
Enzymes: • HDAC1 assay: 75 nM Human HDAC1 (GenBank Accession No. NM_004964): Full length with C-terminal GST tag, MW=79.9 kDa, expressed by baculovirus expression system in Sf9 cells (BioMol. Cat. # SE-456). • HDAC2 assay: 5 nM Human HDAC2 (GenBank Accession No. Q92769): Full length with C-terminal His tag, MW=60 kDa, expressed by baculovirus expression system in Sf9 cells (BioMol. Cat. # SE-500). • HDAC3 assay: 2.3 nM Human HDAC3/NcoR2 (GenBank Accession No. NM_003883 for HDAC3, GenBank Accession No.NM_006312 for NcoR2): Complex of human HDAC3, full length with C-terminal His tag, MW=49.7 kDa, and human NCOR2, N-terminal GST tag, MW=39 kDa, co-expressed in baculovirus expression system (BioMol. Cat. # SE-507). • HDAC4 assay: 266 nM Human HDAC4 (GenBank Accession No. NM_006037): Amino acids 627-1085 with N-terminal GST tag, MW=75.2 kDa, expressed in baculovirus expression system (BioMol, Hamburg, Germany). • HDAC5 assay: 588 nM Human HDAC5 (GenBank Accession No. NM_001015053): Full length with Nterminal GST tag, MW=150 kDa, expressed by baculovirus expression system in Sf9 cells (BioMol, Hamburg, Germany). • HDAC6 assay: 13 nM Human HDAC6 (GenBank Accession No. BC069243): Full length with N-terminal GST tag, MW=159 kDa, expressed by baculovirus expression system in Sf9 cells (BioMol. Cat. # SE-508). • HDAC7 assay: 962 nM Human HDAC7 (GenBank Accession No. AY302468): Amino acids 518-end with N-terminal GST tag, MW=78 kDa, expressed in baculovirus expression system (BioMol, Hamburg, Germany). • HDAC8 assay: 119 nM Human HDAC8 (GenBank Accession No. NM018486): Full length, MW=42 kDa, expressed in an E. coli expression system (BioMol. […]
The reactions were carried out in a 96-well microplate for fluorometry in a 50 μl reaction volume. […] The reaction was allowed to develop for 45 minutes at 30° C. with 5% CO2; then the fluorescent signal was measured with an excitation wavelength at 360 nm and an emission wavelength at 460 nm in a microplate-reading fluorometer (GeminiXS; Molecular Devices, Sunnyvale, Calif.). […] IC50 was calculated by fitting the experimental data to a dose-response curve. […]

Row | Structure (SMILES) | Selectivity against HDAC6 (IC50 HDACx/IC50 HDAC6) HDAC10 (IC50 HDAC10/IC50 HDAC6) | IC50 [nM]
1 | COc1ccc(-c2cc(-c3ccccc3)[nH]c2C(=O)NCCCCCC(=O)NO)cc1 [Compound A, N-[6-(hydroxyamino)-6-oxohexyl]-3-(4-methoxyphenyl)-5-phenyl-1H-pyrrole-2-carboxamide, reference compound] | 17.3 | 346
2 | O=C(CCCCCNC(=O)c1[nH]c(-c2ccc(O)cc2)cc1-c1ccsc1)NO [Example 6, N-(5-(hydroxycarbamoyl)pentyl)-5-(4-hydroxyphenyl)-3-(3-thienyl)-1H-pyrrole-2-carboxamide] |  | 47
3 | O=C(CCCCCNC(=O)c1[nH]c(-c2ccc(O)cc2)cc1-c1ccoc1)NO [Example 5, 3-(3-furyl)-N-(5-(hydroxycarbamoyl)pentyl)-5-(4-hydroxy-phenyl)-1H-pyrrole-2-carboxamide] |  | 14
